Measured values reported in patent US20110129508A1 (priority 2008, published 2011).
Entries after “also recorded” stand apart in the source; their conditions may differ. Read-outs that look alike come from different tables or passages of the source.

Assays:
[1] = tested on: rat model of diabetic neuropathic pain; design: species or system rats; conditions: in vivo
[2] = tested on: rat model of prostate bone cancer pain; assay: animal or person; type: in vivo, Male Wistar rats; conditions: for ED50: Rattus norvegicus
[3] = tested on: streptozotocin-induced diabetic neuropathy model of neuropathic pain; conditions: rat, in vivo, ip, 2.5 mg/kg
[4] = rat, in vivo
[5] = male, Wistar (HsdBrlHan WIST), rat, in vivo, ip

SMILES: CCOC(=O)Nc1ccc(NCc2ccc(F)cc2)nc1N [flupirtine]
- reversal of hyperalgesia [1]: 8±8%
- ED50 ([2]; ip): 3.32 mg/kg
- ED50 ([2]; read-out: ED50 Mean): 3.32 mg/kg
- reversal in hyperalgesia [3]: over 20%
- mean rest times [4]: 943.83 s

SMILES: CN1CC[C@]23c4c5ccc(O)c4O[C@H]2[C@@H](O)C=C[C@H]3[C@H]1C5 [morphine]
- ED50 ([2]; ip): 0.735 mg/kg
- ED50 ([2]; read-out: ED50 Mean): 0.735 mg/kg
- antinociception ([2]; rat, in vivo, ip): dose related antinociception; also recorded: dose related antinociceptive effects
- reversal of hyperalgesia ([2]; rat, in vivo, ip, 5 mg/kg): 73%
- maximum non-sedating dose [5]: 5 mg/kg
